target: skeletal myofibrils (myosin ATPase); test: Skeletal Myofibril ATPase Assay; assay type: biochemical; conditions: Table 4A
Experimental: Example 12. Skeletal Myofibril ATPase Assay
Overview: Myosin ATPase activity is assessed by using a coupled reaction system, in which ADP generated by the myosin ATPase function is coupled to the disappearance of NADH through the pyruvate kinase/lactate dehydrogenase (PK-LDH) system. ATPase activity produces ADP, which is used as a substrate for PK to produce pyruvate and regenerate ATP. The pyruvate is then used as a substrate by LDH to oxidize NADH to NAD+. The rate of the reaction is monitored through the time-dependent disappearance of NADH using absorbance at 340 nm. Inhibition of ATPase activity by the assayed compounds is indicated by a reduced rate of NADH loss, relative to vehicle-treated controls, over the experimental time window. To assess the selectivity of the assayed compounds for skeletal myofibrils, the compounds are counter-screened in cardiac myofibrils.
Materials: The following stock solutions and reagents were used in the Skeletal Myofibril ATPase Assay:
Stock Solutions of pCa buffer. Combine PIPES, CaCl2, and EGTA solutions with 70 mL of water. Adjust pH to 7.0 and bring final volume to 100 mL.
Buffer A & Buffer B. Buffers were stored on ice until use.
Skeletal Myofibril ATPase Assay Procedure: BSA, ATP, NADH, PEP, and DTT solutions were thawed at room temperature, then transferred to ice. Pellet-frozen myofibrils were transferred with approximately twice the required volume into a sufficiently large tube and capped. Myofibrils were thawed by rolling in a water bath for approximately 15 min at room temperature and cooled on ice. Buffers A and B were prepared by adjusting volumes as necessary for required number of wells and stored on ice. 0.5 μL of the compounds to be assayed were added into wells. 25 μL of Buffer A was dispensed into the wells, followed by 25 μL of Buffer B. The wells were measured for absorbance at 340 nm, using a kinetic protocol in which the wells are read every 1.5-2 min for 45 min. The slope of the data was approximated by subtracting the minimum absorbance value from the maximum value for each well. This was accomplished either in the SoftMax Pro software or in a spreadsheet program such as Excel. Using GraphPad Prism 8.0, the data was normalized by assigning a value of 100% to the 1% DMSO vehicle wells. Typically, a normalized 0% value was simply assigned to a (Max−Min) value of 0. The normalized data was fit to a Four Parameter Logistic sigmoidal equation, constraining the bottom to be 0 or greater. Compounds of Table 1, 2, and 3 were tested and results of the assay appear in Tables 4a-4c. A=IC50 is less than or equal to 10 μM; B═IC50 is greater than 10 μM and less than 100 μM; C═IC50 is greater than 100 μM.

IC50 [µM]	Structure (SMILES)
< 10	O=C(Cn1nc(-c2ccc(OC(F)F)nc2)ccc1=O)NCc1ccccc1Cl [Compound I-69, N-(2-chlorobenzyl)-2-(3-(6-(difluoromethoxy)pyridin-3-yl)-6-oxopyridazin-1(6H)-yl)acetamide]
< 10	O=C(Cn1nc(-c2ccc(OC(F)F)nc2)ccc1=O)NCc1ccc(Cl)cc1 [Compound I-70, N-(4-chlorobenzyl)-2-(3-(6-(difluoromethoxy)pyridin-3-yl)-6-oxopyridazin-1(6H)-yl)acetamide]
< 10	O=C(Cn1nc(-c2cnc(OCC(F)(F)F)nc2)ccc1=O)NC1CCC1 [Compound I-71, N-cyclobutyl-2-(6-oxo-3-(2-(2,2,2-trifluoroethoxy)pyrimidin-5-yl)pyridazin-1(6H)-yl)acetamide]
< 10	O=C(Cn1nc(-c2cnc(OCCOC(F)(F)F)nc2)ccc1=O)NC1CCC1 [Compound I-72, N-cyclobutyl-2-(6-oxo-3-(2-(2-(trifluoromethoxy)ethoxy)pyrimidin-5-yl)pyridazin-1(6H)-yl)acetamide]
< 10	CCCOc1ncc(-c2ccc(=O)n(CC(=O)NC3CCC3)n2)cn1 [Compound I-73, N-cyclobutyl-2-(6-oxo-3-(2-propoxypyrimidin-5-yl)pyridazin-1(6H)-yl)acetamide]
10 to 100	CCNC(=O)Cn1nc(-c2ccc(NC3CC(F)(F)C3)nc2)ccc1=O [Compound I-74, 2-(3-(6-((3,3-difluorocyclobutyl)amino)pyridin-3-yl)-6-oxopyridazin-1(6H)-yl)-N-ethylacetamide]
10 to 100	O=C(Cn1nc(-c2ccc(OC(F)F)nc2)ccc1=O)NCc1cccc(Cl)c1 [Compound I-76, N-(3-chlorobenzyl)-2-(3-(6-(difluoromethoxy)pyridin-3-yl)-6-oxopyridazin-1(6H)-yl)acetamide]
10 to 100	CCNC(=O)Cn1nc(-c2cnc(OCC3CC(F)(F)C3)nc2)ccc1=O [Compound I-77, 2-(3-(2-((3,3-difluorocyclobutyl)methoxy)pyrimidin-5-yl)-6-oxopyridazin-1(6H)-yl)-N-ethylacetamide]
10 to 100	CCNC(=O)Cn1nc(-c2cnc(Oc3ccc(Cl)cc3)nc2)ccc1=O [Compound I-78, 2-(3-(2-(4-chlorophenoxy)pyrimidin-5-yl)-6-oxopyridazin-1(6H)-yl)-N-ethylacetamide]
> 100	CC(C)COc1ncc(-c2ccc(=O)n(CC(=O)NC3CCC3)n2)cn1 [Compound I-79, N-cyclobutyl-2-[3-[2-(2-methylpropoxy)pyrimidin-5-yl]-6-oxopyridazin-1-yl]acetamide]

Structure (SMILES)	IC50 [µM]
CCNC(=O)Cn1nc(-c2ccc(OC3CC(F)(F)C3)nc2)ccc1=O [Compound I-75, 2-(3-(6-(3,3-difluorocyclobutoxy)pyridin-3-yl)-6-oxopyridazin-1(6H)-yl)-N-ethylacetamide]	10 to 100

same assay, conditions: Table 4B

IC50 [µM]	Structure (SMILES)
< 10	CCNC(=O)Cn1nc(-c2ccc(OC(C)(F)F)cc2)ccc1=O [II-1, 2-(3-(4-(1,1-difluoroethoxy)phenyl)-6-oxopyridazin-1(6H)-yl)-N-ethylacetamide]
< 10	CCNC(=O)Cn1nc(-c2ccc(NC(C)=O)cc2)ccc1=O [II-2, 2-(3-(4-acetamidophenyl)-6-oxopyridazin-1(6H)-yl)-N-ethylacetamide]
< 10	O=C(Cn1nc(-c2ccc(OC(F)F)cc2)ccc1=O)NCc1ccccc1Cl [II-3, N-(2-chlorobenzyl)-2-(3-(4-(difluoromethoxy)phenyl)-6-oxopyridazin-1(6H)-yl)acetamide]
< 10	CC(C)NC(=O)Cn1nc(-c2ccc(OC(F)(F)F)cc2)ccc1=O [II-4, N-isopropyl-2-(6-oxo-3-(4-(trifluoromethoxy)phenyl)pyridazin-1(6H)-yl)acetamide]
< 10	CCNC(=O)Cn1nc(-c2ccc(OC(F)(F)F)cc2)ccc1=O [II-5, N-ethyl-2-(6-oxo-3-(4-(trifluoromethoxy)phenyl)pyridazin-1(6H)-yl)acetamide]
< 10	CCNC(=O)Cn1nc(-c2ccc(OCC(F)(F)F)cc2)ccc1=O [II-6, N-ethyl-2-(6-oxo-3-(4-(2,2,2-trifluoroethoxy)phenyl)pyridazin-1(6H)-yl)acetamide]
< 10	CCNC(=O)Cn1nc(-c2ccc(OCC(F)F)cc2)ccc1=O [II-7, 2-(3-(4-(2,2-difluoroethoxy)phenyl)-6-oxopyridazin-1(6H)-yl)-N-ethylacetamide]
< 10	CC(=O)Nc1ccc(-c2ccc(=O)n(CC(=O)NCc3ccccc3Cl)n2)cc1 [II-8, 2-(3-(4-acetamidophenyl)-6-oxopyridazin-1(6H)-yl)-N-(2-chlorobenzyl) acetamide]
< 10	O=C(Cn1nc(-c2ccc(OC(F)F)cc2)ccc1=O)NC1CCC1 [II-9, N-cyclobutyl-2-(3-(4-(difluoromethoxy)phenyl)-6-oxopyridazin-1(6H)-yl)acetamide]
< 10	CCNC(=O)Cn1nc(-c2ccc(OC(F)F)cc2)ccc1=O [II-10, 2-(3-(4-(difluoromethoxy)phenyl)-6-oxopyridazin-1(6H)-yl)-N-ethylacetamide]
10 to 100	O=C(Cn1nc(-c2ccc(OC(F)F)cc2)ccc1=O)NCC(F)(F)F [II-11, 2-(3-(4-(difluoromethoxy)phenyl)-6-oxopyridazin-1(6H)-yl)-N-(2,2,2-trifluoroethyl) acetamide]
10 to 100	CCCNC(=O)Cn1nc(-c2ccc(OC(F)F)cc2)ccc1=O [II-12, 2-(3-(4-(difluoromethoxy)phenyl)-6-oxopyridazin-1(6H)-yl)-N-propylacetamide]
10 to 100	CC(C)CNC(=O)Cn1nc(-c2ccc(OC(F)F)cc2)ccc1=O [II-13, 2-(3-(4-(difluoromethoxy)phenyl)-6-oxopyridazin-1(6H)-yl)-N-isobutylacetamide]
10 to 100	CC(=O)Nc1ccc(-c2ccc(=O)n(CC(=O)NC(C)C)n2)cc1 [II-14, 2-(3-(4-acetamidophenyl)-6-oxopyridazin-1(6H)-yl)-N-isopropylacetamide]
10 to 100	O=C(Cn1nc(-c2ccc(OC(F)F)cc2)ccc1=O)NCC(F)F [II-15, N-(2,2-difluoroethyl)-2-(3-(4-(difluoromethoxy)phenyl)-6-oxopyridazin-1(6H)-yl)acetamide]
10 to 100	CC(C)(C)NC(=O)Cn1nc(-c2ccc(OC(F)F)cc2)ccc1=O [II-16, N-(tert-butyl)-2-(3-(4-(difluoromethoxy)phenyl)-6-oxopyridazin-1(6H)-yl)acetamide]
10 to 100	CCCCNC(=O)Cn1nc(-c2ccc(OC(F)F)cc2)ccc1=O [II-17, N-butyl-2-(3-(4-(difluoromethoxy)phenyl)-6-oxopyridazin-1(6H)-yl)acetamide]
10 to 100	O=C(Cn1nc(-c2ccc(OC(F)F)cc2)ccc1=O)NCC1CCC1 [II-18, N-(cyclobutylmethyl)-2-(3-(4-(difluoromethoxy)phenyl)-6-oxopyridazin-1(6H)-yl)acetamide]
10 to 100	CCNC(=O)Cn1nc(-c2ccc(OC(F)F)cc2)c(C)cc1=O [II-19, 2-(3-(4-(difluoromethoxy)phenyl)-4-methyl-6-oxopyridazin-1(6H)-yl)-N-ethylacetamide]
> 100	O=C(Cn1nc(-c2ccc(OCC(F)(F)F)cc2)ccc1=O)NCc1ccc(O)nc1 [II-20, N-((6-hydroxypyridin-3-yl)methyl)-2-(6-oxo-3-(4-(2,2,2-trifluoroethoxy)phenyl)pyridazin-1(6H)-yl)acetamide]
> 100	CCNC(=O)Cn1nc(-c2ccc(OC(F)F)cc2)cc(C)c1=O [II-21, 2-(3-(4-(difluoromethoxy)phenyl)-5-methyl-6-oxopyridazin-1(6H)-yl)-N-ethylacetamide]
< 10	O=C(Cn1nc(-c2ccc(OCC(F)(F)F)cc2)ccc1=O)N1CC(c2ccccc2)C1 [II-22, 2-(2-oxo-2-(3-phenylazetidin-1-yl)ethyl)-6-(4-(2,2,2-trifluoroethoxy)phenyl)pyridazin-3(2H)-one]
< 10	O=C(Cn1nc(-c2ccc(OCC(F)(F)F)cc2)ccc1=O)N1CCC1c1ccccc1 (centres unmarked) [II-23, 2-(2-oxo-2-(2-phenylazetidin-1-yl)ethyl)-6-(4-(2,2,2-trifluoroethoxy)phenyl)pyridazin-3(2H)-one]
> 100	O=C(Cn1nc(-c2ccc(OCC(F)(F)F)cc2)ccc1=O)NCc1ccc(CO)cc1 [II-24, N-(4-(hydroxymethyl)benzyl)-2-(6-oxo-3-(4-(2,2,2-trifluoroethoxy)phenyl)pyridazin-1(6H)-yl)acetamide]

Reference: patent US20230293518A1 (Edgewise Therapeutics, Inc., priority 2020, published 2023)
